Assay results reported in US20230212517A1, “METHODS FOR GENERATING HEMATOPOIETIC STEM CELLS” (The Brigham and Women's Hospital, Inc., priority 2018, published 2023).

How the values were obtained:
Dnmt3b = Dnmt3b protein level in nuclear fractions of E11.5 AGM cells (EPIQUIK assay kit); format: cell-based, mouse; conditions: nuclear fractions of treated E11.5 AGM cells
Description: RNA-sequencing analyses were performed to measure gene expression patterns in mouse AGM treated with cyclic strain or pharmacological modulators. Using computational algorithms, hierarchical clustering was performed of differentially expressed genes as well as measured their overrepresented biological processes and pathways. Gene expression clusters of differentially expressed genes were analyzed and their mean expression level across cell populations compared. Next, Venn comparison of up- and down-genes was constructed to analyze candidate(s) important for cyclic strain- or pharmacological modulator(s)-mediated the endothelial-to-HSC transition. Furthermore, Dnmt3b and Dnmt3a protein expressions were analyzed in nuclear fractions of mouse AGM cells using EPIQUIK methyltransferase assay kits. Data are presented as mean±s.d. unless otherwise noted. Statistical analyses were performed by paired or un-paired Student's t-tests. Significance was set at P<0.05.
Nuclear extracts from AGM explants were harvested using an EPIQUIK Nuclear Extraction Kit (Epigentek Group Inc.). Dnmt3b and Dnmt3a protein levels were analyzed using a colorimetric EPIQUIK methyltransferase Assay Kit (Epigentek Group Inc.), according to the manufacturer's instructions. Concentration of Dnmt3b and Dnmt3a is relative to 1 μg of nuclear extract proteins.

E11.5 AGM cells = experiment: Hematopoietic colony formation unit (CFU) and FACS assays on E11.5 AGM cells; format: cell-based, mouse; conditions: substance alone vs. control
Description: (§1) Pulsating blood vessels like conditions were stimulated in vitro using FLEXCELL FX-4000 cell stretching bioreactor machine. To analyze roles of pharmacological targets in regulating the endothelial-to-HSC transition, mouse embryo-derived AGM or whole mouse embryo were exposed ex vivo with biomechanical stretching, chemicals, or drugs. Next, hematopoietic colony formation assays were performed by incubating mouse AGM-derived cells in StemCell M3434 media for seven days. Serial transplantation of AGM-derived HSCs in lethally irradiated SJL mice were performed. The stem cell frequency upon biomechanical stretching was analyzed using a limiting dilution assay. To characterize properties of AGM-HSC-derived blood cells in primary transplants, percentage chimerism and reconstitution was measured using FACS, globin transcripts were analyzed using quantitative reverse transcriptase-PCR, myeloperoxidase amount was measured using PICOKINE ELISA kit, TCR-β rearrangement was analyzed using PCR for TCR-β locus, pre-immune IG detection was analyzed using Thermo-Fisher Mouse Ig Isotyping kit, and delayed-type hypersensitivity was analyzed by injecting sheep RBC (Rockland Immunochemicals) in the footpad of pre-sensitized mice.
E11.5 AGM were harvested from C57BL6/J Cd45.2 mouse embryos, and a single cell suspension of a three-embryo equivalent of cells was seeded on each well of a BioFlex six-well culture plate (FlexCell). We cultured cells overnight with the application of cyclic strain (Flexcell® FX4000™ Tension System) and/or treatment with chemical modulators (25-50 μM Yoda1, 1 μM Nanaomycin, 100 μM GdCl3, 1 uM GsMTx4, 5-20 μM 4αPDD, 10 uM GSK205). Next, harvested cells were used to perform transplant, fluorescence-activated cell sorting (FACS) analysis, and colony-forming unit (CFU) assays.
E11.5 mouse embryos were harvested from the uterus of the time-mated pregnant female, into sterile glass vials containing FBS, 1 mM glucose, 1% Penicillin-Streptomycin, and/or the selected chemical modulator (25-50 μM Yoda1, 1 μM Nanaomycin, 5-20 μM 4αPDD, or 10 uM GSK205). We placed glass vials in the ex vivo incubator (BTC Engineering, Cambridge, UK) consisting of a roller apparatus (rotating ˜30 rpm), constant gas supply (21% O2, 5% CO2, balance N2) and constant temperature at 37° C. After 24 hours, AGM were harvested to analyze the formation of hematopoietic cells by FACS and CFU assays.
For CFU assays, cells from AGM explant or ex vivo were plated in METHOCULT GF M3434 media (StemCell Technologies). Seven days after seeding, we analyzed their capacity to make granulocyte, erythroid, macrophage, megakaryocyte (GEMM), granulocyte macrophage (GM), granulocyte (G), macrophage (M), and erythroid (E) colonies.
AGM cells from explants and ex vivo were stained with Sca1-Pacific-Blue (E13-161.7, Biolegend) and Flk1-APC-Cy7 (Avas 12α1, BD). Blood from transplanted mice was stained with the following antibody cocktail: Cd45.2-Pacific-Blue (104, Biolegend), Cd45.1-FITC (A20, Biolegend), Cd3-PE (145-2C11, Biolegend), Cd8-PE (53-6.7, Biolegend), Mac1-APC (M1/70, Biolegend), Gr1-APC (108412, Biolegend), Cd19-APC-CY7 (6D5, Biolegend), B220-APC-CY7 (RA3-6B2, Biolegend).

[1] = system: primary transplant (recipient) mice; experiment: Delayed-type hypersensitivity assay in primary transplant mice; format: in vivo, mouse; conditions: primary transplant of treated E11.5 AGM
Description: as §1, with “mice. […]” for “mice.”

[2] = system: bone marrow-derived Cd71+ Ter119+ sorted (donor) erythroid cells; experiment: qRT-PCR of globin transcripts in donor erythroid cells of primary transplant; format: in vivo, mouse; conditions: primary transplant of treated E11.5 AGM
Description: as §1
FACS was used to sort erythroid precursors (Cd45.2^+, Ter119^+, Cd71^+) from the unlysed bone marrow isolated from AGM-transplanted mice. […]

With Clc1cccc(Cl)c1CSc1nnc(-c2cnccn2)s1 [Yoda1, 2-[5-[[(2,6-Dichlorophenyl)methyl]thio]-1,3,4-thiadiazol-2-yl]-pyrazine] the “Dnmt3b protein expression level” value (Dnmt3b) was “specifically stimulates Dnmt3b protein expression levels”, the “hematopoietic colony formation (endothelial-to-hematopoietic transition)” value (E11.5 AGM cells) was “stimulates the endothelial-to-hematopoietic transition” and the “T-cell mediated immune response (footpad, sheep RBC challenge)” value [1] was “possess T-cell mediated immune response”. For the same compound, the “hemoglobin type (β-major adult, εγ and β-H1 embryonic) expressed in donor erythroid cells” value [2] was “reconstitutes to red cells containing adult hemoglobin”.
